Results taken from ChEMBL document CHEMBL1148834, “A novel diketo phosphonic acid that exhibits specific, strand-transfer inhibition of HIV integrase and anti-HIV activity” (Bioorg Med Chem Lett, 2007).
pIC50: −log10 of the molar value.

Columns and labels:
[1] = tested on: Human immunodeficiency virus 1; assay: Antiviral activity against HIV1 TEK1 in PBMC; type: functional, organism-based; conditions: Human immunodeficiency virus 1, TEK1
[2] = tested on: Human immunodeficiency virus 1; assay: Antiviral activity against HIV1 NL4-3 in PBMC; type: functional, organism-based; conditions: Human immunodeficiency virus 1, NL4-3
[3] = Cytotoxicity against PBMC cells; type: cell-based; conditions: human
[4] = Therapeutic index, ratio of CC50 for PBMC to IC50 for HIV1 TEK1; conditions: read-out: Ratio CC50/IC50
[5] = Therapeutic index, ratio of CC50 for PBMC to IC50 for HIV1 NL4-3; conditions: read-out: Ratio CC50/IC50
[6] = Inhibition of HIV integrase 3'-processing activity by magnesium chloride-based assay; parameters: species or system Human immunodeficiency virus
[7] = Inhibition of HIV integrase strand transfer activity by magnesium chloride-based assay; parameters: species or system Human immunodeficiency virus

Row | Compound | pIC50 [1] | pIC50 [2] | CC50 [3] [µM] | selectivity ratio [4] | selectivity ratio [5] | pIC50 [6] | pIC50 [7]
1 | O=C(/C=C(\O)P(=O)(O)O)c1cc(OCc2ccccc2)cc(OCc2ccccc2)c1 | 5.09 | 4.93 | 46.9 | 5.8 | 4 |  | 
2 | O=C(/C=C(\O)P(=O)(O)O)c1cn(Cc2ccccc2)c(=O)n(Cc2ccccc2)c1=O | 5.40 | 5.49 | > 200 | > 50 | > 62 | < 3.48 | 4.69
